Results published in ChEMBL document CHEMBL1671783, “3-Thiomorpholin-8-oxo-8H-acenaphtho[1,2-b]pyrrole-9-carbonitrile (S1) based molecules as potent, dual inhibitors of B-cell lymphoma 2 (Bcl-2) and myeloid cell leukemia sequence 1 (Mcl-1): structure-based design and structure-activity relationship studies” (J Med Chem, 2011).
Activity calls are given as the source filed them. The calls are words filed in the database; no cut-off is given here.

Assays:
[1] = molecular target: T1, Induced myeloid leukemia cell differentiation protein Mcl-1 (Homo sapiens, UniProt Q07820); assay: Displacement of FAM-Bid from human Mcl-1 after 30 mins by fluorescence polarization assay
[2] = molecular target: T2, MCL1-BAK1 complex (Homo sapiens) (UniProt Q07820+Q16611); assay: Inhibition of Mcl-1/Bak interaction in human SMMC7721 cells expressing high level of Mcl-1 at 10 uM after 3 hrs by Western blotting; format: cell-based; conditions: SMMC-7721
[3] = molecular target: T2, MCL1-BAK1 complex (Homo sapiens); assay: Inhibition of Mcl-1/Bak interaction in human SMMC7721 cells at 10 uM after 3 hrs by Western blotting; format: cell-based; conditions: SMMC-7721
MCF7 = assay: Cytotoxicity against human MCF7 cells after 24 hrs by MTT assay; format: functional, cell-based; conditions: MCF7, 24 h
[4] = molecular target: T3, Apoptosis regulator BAX/Induced myeloid leukemia cell differentiation protein Mcl-1 (Homo sapiens) (UniProt Q07820+Q07812); assay: Inhibition of Mcl-1/Bax interaction in human MCF7 cells at 10 uM after 3 hrs by Western blotting; format: cell-based
SMMC-7721 [5] = assay: Cytotoxicity against human SMMC7721 cells after 24 hrs by MTT assay; format: functional, cell-based; conditions: SMMC-7721, 24 h
HEK293 = assay: Cytotoxicity against human HEK293 cells after 24 hrs by MTT assay; format: cell-based; conditions: HEK293, 24 h
[6] = molecular target: T4, Apoptosis regulator Bcl-2 (Homo sapiens, UniProt P10415); assay: Displacement of FAM-Bid from human recombinant Bcl-2 after 30 mins by ELISA
[7] = molecular target: T1, Induced myeloid leukemia cell differentiation protein Mcl-1; assay: Displacement of FAM-Bid from human Mcl-1 after 30 mins by ELISA
[8] = molecular target: T3, Apoptosis regulator BAX/Induced myeloid leukemia cell differentiation protein Mcl-1 (Homo sapiens); assay: Inhibition of Mcl-1/Bax interaction in human SMMC7721 cells at 10 uM after 3 hrs by Western blotting; format: cell-based; conditions: SMMC-7721
SMMC-7721 [9] = assay: Cytotoxicity against human SMMC7721 cells expressing high level of Mcl-1 after 24 hrs by MTT assay; format: functional, cell-based; conditions: SMMC-7721, 24 h
[10] = molecular target: T2, MCL1-BAK1 complex (Homo sapiens); assay: Inhibition of Mcl-1/Bak interaction in human MCF7 cells at 10 uM after 3 hrs by Western blotting; format: cell-based
[11] = molecular target: T4, Apoptosis regulator Bcl-2; assay: Displacement of FAM-Bid from human Bcl-2 after 30 mins by fluorescence polarization assay
[12] = molecular target: T1, Induced myeloid leukemia cell differentiation protein Mcl-1; assay: Binding affinity to Mcl-1
[13] = molecular target: T4, Apoptosis regulator Bcl-2; assay: Binding affinity to Bcl-2

T1 sequence (Q07820 whole entry): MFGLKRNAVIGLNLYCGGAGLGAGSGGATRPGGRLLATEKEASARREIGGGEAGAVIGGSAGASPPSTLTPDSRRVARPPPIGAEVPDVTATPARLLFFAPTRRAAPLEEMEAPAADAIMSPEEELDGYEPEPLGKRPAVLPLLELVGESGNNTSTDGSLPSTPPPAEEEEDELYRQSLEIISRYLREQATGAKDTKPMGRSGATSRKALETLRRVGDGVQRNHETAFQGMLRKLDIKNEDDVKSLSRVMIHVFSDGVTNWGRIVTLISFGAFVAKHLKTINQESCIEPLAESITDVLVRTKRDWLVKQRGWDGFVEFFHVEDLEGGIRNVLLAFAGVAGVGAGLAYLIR
T3 sequence (Q07812 whole entry, looked up): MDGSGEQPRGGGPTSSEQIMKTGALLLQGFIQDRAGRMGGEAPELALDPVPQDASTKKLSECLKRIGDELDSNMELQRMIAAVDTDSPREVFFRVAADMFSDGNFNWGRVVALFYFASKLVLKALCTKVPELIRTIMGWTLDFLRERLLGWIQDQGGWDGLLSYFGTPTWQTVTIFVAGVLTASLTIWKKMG
T3 sequence (Q07820 whole entry, looked up): as the sequence (Q07820 whole entry) above
T4 sequence (P10415 whole entry): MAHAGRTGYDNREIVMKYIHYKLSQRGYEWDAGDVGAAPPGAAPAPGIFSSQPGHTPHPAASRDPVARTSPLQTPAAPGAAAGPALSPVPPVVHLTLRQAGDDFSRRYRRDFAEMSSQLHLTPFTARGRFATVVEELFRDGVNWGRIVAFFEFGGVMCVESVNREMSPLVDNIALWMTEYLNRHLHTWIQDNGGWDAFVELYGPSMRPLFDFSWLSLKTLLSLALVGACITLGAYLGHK

Row | SMILES | Ki [1] | IC50 (MCF7) | IC50 (SMMC-7721 [5]) | IC50 (HEK293) | IC50 (SMMC-7721 [9]) | also measured
1 | COc1ccc(Sc2ccc3c4c(cccc24)C2=NC(=O)C(C#N)=C23)cc1 | 151 nM | – | – | – | – | –
2 | N#CC1=C2C(=NC1=O)c1cccc3c(Sc4ccc(N)cc4)ccc2c13 | – | 12 nM | 18 nM | > 50000 nM | 16 nM | Activity [2]: inactive; Activity [3]: Active; Activity [4]: Active; IC50 [6]: 302 nM; IC50 [7]: 5 nM; Activity [8]: Active; Activity [10]: Active
3 | Cc1ccc(Oc2ccc3c4c(cccc24)C2=NC(=O)C(C#N)=C23)cc1 | 1920 nM | – | – | – | – | –
4 | CCC(C)(C)c1ccc(Oc2ccc3c4c(cccc24)C2=NC(=O)C(C#N)=C23)cc1 | 967 nM | – | – | – | – | –
5 | Cc1ccc(Sc2ccc3c4c(cccc24)C2=NC(=O)C(C#N)=C23)cc1 | 1510 nM | – | – | – | – | –
6 | CCC(C)(C)c1ccc(Sc2ccc3c4c(cccc24)C2=NC(=O)C(C#N)=C23)cc1 | 961 nM | 21300 nM | 11900 nM | > 50000 nM | 25600 nM | IC50 [6]: 342 nM; IC50 [7]: 585 nM
7 | N#CC1=C2C(=NC1=O)c1cccc3c(Oc4ccc(-c5ccccc5)cc4)ccc2c13 | 1280 nM | – | – | – | – | –
8 | N#CC1=C2C(=NC1=O)c1cccc3c(Sc4ccccc4)ccc2c13 | – | > 50000 nM | > 50000 nM | > 50000 nM | > 50000 nM | Activity [3]: inactive; Activity [10]: inactive
9 | COc1ccc(Oc2ccc3c4c(cccc24)C2=NC(=O)C(C#N)=C23)cc1 | 258 nM | – | – | – | – | –
10 | N#CC1=C2C(=NC1=O)c1cccc3c(Sc4ccc(-c5ccccc5)cc4)ccc2c13 | 842 nM | – | – | – | – | –

More lines, main results first:

Row | Ki [1] | SMILES | IC50 (MCF7) | IC50 (SMMC-7721 [5]) | IC50 (HEK293) | IC50 (SMMC-7721 [9]) | also measured
11 | 91 nM | CN(C)c1ccc(Sc2ccc3c4c(cccc24)C2=NC(=O)C(C#N)=C23)cc1 | – | – | – | – | –
12 | 62 nM | N#CC1=C2C(=NC1=O)c1cccc3c(N4CCSCC4)ccc2c13 | 90 nM | 170 nM | > 100000 nM | 190 nM | Activity [4]: Active; IC50 [6]: 285 nM; Ki [11]: 319 nM; Ki [12]: 58 nM; IC50 [7]: 35 nM; Ki [13]: 310 nM; Activity [8]: Active
13 | 49 nM | N#CC1=C2C(=NC1=O)c1cccc3c(Sc4ccc(Br)cc4)ccc2c13 | 90 nM | 190 nM | > 50000 nM | 180 nM | Activity [4]: Active; Ki [11]: 382 nM; Activity [8]: Active
14 | 122 nM | CN(C)c1ccc(Oc2ccc3c4c(cccc24)C2=NC(=O)C(C#N)=C23)cc1 | – | – | – | – | –
15 | 99 nM | CC(C)c1ccc(Oc2ccc3c4c(cccc24)C2=NC(=O)C(C#N)=C23)cc1 | – | – | – | – | –
16 | 82 nM | CC(C)c1ccc(Sc2ccc3c4c(cccc24)C2=NC(=O)C(C#N)=C23)cc1 | – | – | – | – | –
